Test results: patent US20180185801A1, “AMPHOTERIC ESTER SULFONATES” (Eastman Chemical Company, priority 2014, published 2018)
Like-named read-outs stand apart in the source and are kept apart here. Blank lines part the entries; values can stand above or below the compound they belong to.

Experiments:
[1] = Critical micelle concentration, fluorimetric determination with DPH dye; format: physicochemical
Procedure: The critical micelle concentration (CMC) was also determined for each compound. The CMC is the concentration of surfactant above which micelles spontaneously form. CMC is an important characteristic of a surfactant. At surfactant concentrations below the CMC, surface tension varies widely with surfactant concentration. At concentrations above the CMC, surface tension remains fairly constant. A lower CMC indicates less surfactant is needed to saturate interfaces and form micelles. Typical CMC values are less than 1 weight percent (10,000 ppm).
The fluorimetric determination of CMC described by Chattopadhyay and London (Analytical Biochemistry, Vol. 139, pp. 408-412 (1984)) was used to obtain the critical micelle concentrations found in Table 3 below. This method employs the fluorescent dye 1,6-diphenyl-1,3,5-hexatriene (DPH) in a solution of the surface-active agent. The analysis is based on differences in fluorescence upon incorporation of the dye into the interior of the micelles. As the solution exceeds CMC, a large increase in fluorescence intensity is observed.

[2] = buffer, pH 4.5
Procedure: The resulting mixture was placed in a 50° C. oven. Samples were taken periodically and analyzed for the amount of 3-(lauroyloxypropyldimethylammonio)-2-hydroxypropanesulfonate remaining by quantitative HPLC.
Samples were taken periodically and analyzed for the amount of 3-(cocoyloxypropyldimethylammonio)acetate remaining by quantitative HPLC.

[3] = Foaming properties, ASTM 1173-07 foam height test; format: physicochemical
Description: The Standard Test Method for Foaming Properties of Surface-Active Agents (ASTM 1173-07) was used to determine the foaming properties of the ester sulfonates 1 described herein. This method generates foam under low-agitation conditions and is generally used for moderate- and high-foam surfactants. This test gathers data on initial foam height and foam decay.
Foam decay provides information on foam stability.
The apparatus for carrying out this test includes a jacketed column and a pipet. The jacketed column serves as a receiver, while the pipet delivers the surface-active solution. Solutions of each surface-active agent were prepared. The amphoteric ester sulphonate solution to be tested was added to the receiver (50 mL) and to the pipet (200 mL). The pipet was positioned above the receiver and opened. As the solution fell and made contact with the solution in the receiver, foam was generated. When the pipet was empty, the time was noted and an initial foam height was recorded. The foam height was recorded each minute for five minutes. Exact size specifications for the glassware can be found in ASTM 1173-07. The foam height results for each ester sulfonate 1 and representative standards are listed below in Tables 1 (0.1% concentration) and 2 (1% concentration).

SMILES: CCCCCCCCCCCCOS(=O)(=O)O.N [ammonium lauryl sulfate]
- CMC [1]: 1.38 mM
- CMC (ppm) [1]: 392 ppm

SMILES: CCCCCCCCCCCCOS(=O)(=O)[O-].[Na+] [sodium lauryl sulfate]
- CMC [1]: 8.27 mM
- CMC (ppm) [1]: 2386 ppm

- Percent Amphoteric Remaining ([2]; 0 h): 100%
- Percent Amphoteric Remaining ([2]; 336 h): 98%
- Percent Amphoteric Remaining ([2]; 1008 h): 98%
- Percent Amphoteric Remaining ([2]; 1344 h): 94%
- Percent Amphoteric Remaining ([2]; 2016 h): 95%
SMILES: CCCCCCCCCCCC(=O)OCCC[N+](C)(C)CC(O)CS(=O)(=O)[O-] (centres unmarked) [Example 31, 3-(lauroyloxypropyldimethylammonio)-2-hydroxypropanesulfonate]

- Foam height (cm) at time t (min) ([3]; 1 g/L (0.1 weight %), t = 0 min): 16.5 cm
- Foam height (cm) at time t (min) ([3]; 1 g/L (0.1 weight %), t = 1 min): 16.0 cm
- Foam height (cm) at time t (min) ([3]; 1 g/L (0.1 weight %), t = 2 min): 15.5 cm
- Foam height (cm) at time t (min) ([3]; 1 g/L (0.1 weight %), t = 3 min): 15.5 cm
- Foam height (cm) at time t (min) ([3]; 1 g/L (0.1 weight %), t = 4 min): 15.5 cm
- Foam height (cm) at time t (min) ([3]; 1 g/L (0.1 weight %), t = 5 min): 15.0 cm
- Foam height (cm) at time t (min) ([3]; 10 g/L (1.0 weight %), t = 0 min): 17.5 cm
- Foam height (cm) at time t (min) ([3]; 10 g/L (1.0 weight %), t = 1 min): 17.0 cm
- Foam height (cm) at time t (min) ([3]; 10 g/L (1.0 weight %), t = 2 min): 17.0 cm
- Foam height (cm) at time t (min) ([3]; 10 g/L (1.0 weight %), t = 3 min): 16.5 cm
- Foam height (cm) at time t (min) ([3]; 10 g/L (1.0 weight %), t = 4 min): 16.0 cm
- Foam height (cm) at time t (min) ([3]; 10 g/L (1.0 weight %), t = 5 min): 15.5 cm
- CMC [1]: 0.060 mM
- CMC (ppm) [1]: 26.4 ppm
SMILES: CCCCCCCCCCCC(=O)OC(C)CC[N+](C)(C)CC(O)CS(=O)(=O)[O-] (centres unmarked) [Example 27, 3-(3-(lauroyloxy)-1-butyldimethylammonio-1-yl)-2-hydroxypropanesulfonate]
